# According to patent publication US11802133B2, “Heterocyclic compounds as monoacylglycerol lipase inhibitors” (Hoffmann-La Roche Inc., priority 2018, dated 2023):
# pIC50: −log10 of the molar value.
# Target: MAGL (recombinant wild-type) (Homo sapiens (Human), UniProt Q99685)
# Test: 4-NPA assay: MAGL inhibitory activity by hydrolysis of 4-nitrophenylacetate (absorbance at 405 nm)
# Format: biochemical
# Conditions: measured in 4-NPA assay (footnote [a]); 1 nM MAGL, 300 μM 4-nitrophenylacetate
# Experimental: This assay is hereinafter abbreviated “4-NPA assay”.
# The plate was shaked for 1 min at 2000 rpm (Variomag Teleshake) and then incubated for 15 min at RT. […] The final concentrations in the assay were 1 nM MAGL and 300 μM 4-Nitrophenylacetate. […] A second measurement was then done after incubation for 80 min at RT. From the two measurements, the slope was calculated by subtracting the first from the second measurement.
# Sequence of MAGL (recombinant wild-type) (Q99685 whole entry, species assumed): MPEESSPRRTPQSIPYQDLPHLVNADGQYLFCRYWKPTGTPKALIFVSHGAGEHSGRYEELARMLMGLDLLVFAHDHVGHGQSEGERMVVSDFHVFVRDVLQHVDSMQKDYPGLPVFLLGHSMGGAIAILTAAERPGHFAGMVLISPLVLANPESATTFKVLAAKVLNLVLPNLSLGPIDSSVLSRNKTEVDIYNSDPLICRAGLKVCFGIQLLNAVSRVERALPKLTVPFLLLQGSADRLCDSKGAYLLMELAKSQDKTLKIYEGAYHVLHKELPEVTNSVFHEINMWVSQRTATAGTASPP
row,pIC50,SMILES
1,7.70,O=C1CO[C@H]2CCN(C(=O)N3CCC(COc4ccc(F)cc4F)CC3)C[C@H]2N1 [Example 32]
2,5.74,O=C1CO[C@@H]2CCN(C(=O)N3CCC(Cc4ccc(C(F)(F)F)cc4)CC3)C[C@@H]2N1 [Example 20]
3,8.05,O=C1CO[C@H]2CCN(C(=O)N3CC(COc4ccc(C(F)(F)F)cc4Cl)C3)C[C@H]2N1 [Example 62]
4,7.06,O=C1CO[C@H]2CCN(C(=O)N3CCC(Oc4ccc(C(F)(F)F)cc4)CC3)C[C@H]2N1 [Example 13]
5,7.96,O=C1CO[C@H]2CCN(C(=O)N3CCC(COc4ccc(F)cc4Cl)CC3)C[C@H]2N1 [Example 7]
6,8.30,"CC1C(OCc2ccc(C(F)(F)F)cc2)CN1C(=O)N1CC[C@@H]2OCC(=O)N[C@@H]2C1 (single isomer, unassigned) [Example 103]"
7,8.30,O=C1CO[C@H]2CCN(C(=O)N3CC(OCc4ccc(C(F)(F)F)cc4F)C3)C[C@H]2N1 [Example 29]
8,7.04,CC(C)(C)c1coc(CC2CCN(C(=O)N3CC[C@@H]4OCC(=O)N[C@@H]4C3)CC2)n1 [Example 4]
9,8.40,O=C1CO[C@H]2CCN(C(=O)N3CCC(COc4ccc(F)cc4Cl)CC3)C[C@H]2N1 [Example 24]
10,8.22,O=C1CO[C@H]2CCN(C(=O)N3CCC(Cc4ccc(C(F)(F)F)cc4-c4cn[nH]c4)CC3)C[C@H]2N1 [Example 81]
11,6.17,O=C1CO[C@H]2CCN(C(=O)N3CCC(Cn4cnc(C(F)(F)F)c4)CC3)C[C@H]2N1 [Example 60]
12,5.89,CC(C)(C)c1csc(CC2CCN(C(=O)N3CC[C@H]4OCC(=O)N[C@H]4C3)CC2)n1 [Example 5]
13,7.38,"O=C1CO[C@H]2CCN(C(=O)N3CCC(Cc4ccc(C(F)(F)F)cc4)CC3)C[C@H]2N1 (racemic) [Example 11, rac-(4aR,8aS)-6-[4-[[4-(Trifluoromethyl)phenyl]methyl]piperidine-1-carbonyl]-4,4a,5,7,8,8a-hexahydropyrido[4,3-b][1,4]oxazin-3-one]"
14,5.89,"O=C1CO[C@H]2CCN(C(=O)N3CCC(CN4CCC(F)(F)CC4)CC3)C[C@H]2N1 [Example 37, (4aR,8aS)-6-(4-((4,4-Difluoropiperidin-1-yl)methyl)piperidine-1-carbonyl)hexahydro-2H-pyrido[4,3-b][1,4]oxazin-3(4H)-one]"
15,7.89,O=C1CO[C@H]2CCN(C(=O)N3CCC(Cc4ccc(C(F)(F)F)cc4)CC3)C[C@H]2N1 [Example 8]
16,7.40,"O=C1CO[C@H]2CCN(C(=O)N3CCC(F)(COc4ccc(F)cc4Cl)CC3)C[C@H]2N1 [Example 64, (4aR,8aS)-6-(4-((2-Chloro-4-fluorophenoxy)methyl)-4-fluoropiperidine-1-carbonyl)hexahydro-2H-pyrido[4,3-b][1,4]oxazin-3(4H)-one]"
17,6.72,O=C1CO[C@H]2CCN(C(=O)N3CCC(Cc4ccc(C(F)(F)F)cc4)CC3)C[C@@H]2N1 [Example 14]
18,8.10,O=C1CO[C@H]2CCN(C(=O)N3CCC(COc4ccc(Cl)cc4F)CC3)C[C@H]2N1 [Example 50]
19,7.40,"CC(C)(C)c1csc(CC2CCN(C(=O)N3CC[C@@H]4OCC(=O)N[C@@H]4C3)CC2)n1 [Example 1, (+)-(4aR,8aS)-6-(4-((4-(tert-Butyl)thiazol-2-yl)methyl)piperidine-1-carbonyl)hexahydro-2H-pyrido[4,3-b][1,4]oxazin-3(4H)-one]"

row,pIC50,SMILES
1,6.82,O=C1CO[C@H]2CCN(C(=O)N3CCC(OCc4cccc(Cl)c4)C3)C[C@H]2N1 (some centres unmarked) [Example 94]
2,8.00,O=C1CO[C@H]2CCN(C(=O)N3CCC(COc4ccc(F)cc4C(F)(F)F)CC3)C[C@H]2N1 [Example 51]
3,7.96,Cc1cc(F)ccc1OCC1CCN(C(=O)N2CC[C@@H]3OCC(=O)N[C@@H]3C2)CC1 [Example 61]
4,7.70,CC1(OCc2ccc(C(F)(F)F)cc2F)CN(C(=O)N2CC[C@@H]3OCC(=O)N[C@@H]3C2)C1 [Example 111]
5,6.91,O=C1CO[C@H]2CCN(C(=O)N3CCC(OCc4ccccc4Cl)C3)C[C@H]2N1 (some centres unmarked) [Example 93]
6,8.70,O=C1CO[C@H]2CCN(C(=O)N3CC(OCc4ccc(C(F)(F)F)cc4Cl)C3)C[C@H]2N1 [Example 75]
7,6.28,"O=C1CO[C@H]2CCN(C(=O)N3CCC(COc4ccc(C(F)(F)F)nc4)CC3)C[C@H]2N1 [Example 43, (4aR,8aS)-6-(4-(((6-(trifluoromethyl)pyridin-3-yl)oxy)methyl)piperidine-1-carbonyl)hexahydro-2H-pyrido[4,3-b][1,4]oxazin-3(4H)-one]"
8,7.09,O=C1CO[C@H]2CCN(C(=O)N3CCC(Cc4ccc(C(F)(F)F)cc4)C3)C[C@H]2N1 (some centres unmarked) [Example 100]
9,7.42,O=C1CO[C@H]2CCN(C(=O)N3CCC(Oc4cccc(C(F)(F)F)c4)CC3)C[C@H]2N1 [Example 44]
10,7.74,O=C1CO[C@H]2CCN(C(=O)N3CC(COc4ccc(F)cc4Cl)C3)C[C@H]2N1 [Example 28]
11,8.30,O=C1CO[C@H]2CCN(C(=O)N3CC(COc4ccc(C(F)(F)F)cc4F)C3)C[C@H]2N1 [Example 47]
12,6.80,CC(C)(C)c1cnc(CC2CCN(C(=O)N3CC[C@@H]4OCC(=O)N[C@@H]4C3)CC2)o1 [Example 38]
13,8.52,O=C1CO[C@H]2CCN(C(=O)N3CCC(Cc4ccc(C(F)(F)F)cc4C4CCCC4)CC3)C[C@H]2N1 [Example 58]
14,7.92,O=C1CO[C@H]2CCN(C(=O)N3CCC(Oc4ccc(C(F)(F)F)cc4Cl)CC3)C[C@H]2N1 [Example 40]
15,6.97,O=C1CO[C@H]2CCN(C(=O)N3CCC(Cc4nc5ccccc5o4)CC3)C[C@H]2N1 [Example 72]
16,7.80,O=C1CO[C@H]2CCN(C(=O)N3CC(OCc4ccc(OC(F)(F)F)cc4F)C3)C[C@H]2N1 [Example 77]
17,8.10,O=C1CO[C@H]2CCN(C(=O)N3CCC(Oc4ccc(Cl)c(-c5ccc(Cl)cc5)c4)CC3)C[C@H]2N1 [Example 73]
18,7.46,O=C1CO[C@H]2CCN(C(=O)N3CCC(COc4ccc(Cl)cc4)CC3)C[C@H]2N1 [Example 9]
19,7.31,O=C1CO[C@H]2CCN(C(=O)N3CC(COc4ccc(F)cc4Cl)C3)C[C@H]2N1 [Example 57]

row,pIC50,SMILES
1,6.45,CC(C)(C)c1cnn(CC2CCN(C(=O)N3CC[C@@H]4OCC(=O)N[C@@H]4C3)CC2)c1 [Example 66]
2,6.05,O=C1CO[C@H]2CCN(C(=O)N3CCC(Cc4nc(-c5ccccc5)no4)CC3)C[C@H]2N1 [Example 18]
3,8.10,O=C1CO[C@H]2CCN(C(=O)N3CC(OCc4ccc(C(F)(F)F)cc4)C3)C[C@H]2N1 [Example 76]
4,7.92,N#Cc1ccc(OCC2CCN(C(=O)N3CC[C@@H]4OCC(=O)N[C@@H]4C3)CC2)c(Cl)c1 [Example 59]
5,6.35,"CC1C(OCc2ccc(C(F)(F)F)cc2)CN1C(=O)N1CC[C@@H]2OCC(=O)N[C@@H]2C1 (single isomer, unassigned) [Example 104]"
6,7.72,O=C1CO[C@H]2CCN(C(=O)N3CCC(Cc4ccc(Cl)cc4)CC3)C[C@H]2N1 [Example 35]
7,7.66,O=C1CO[C@H]2CCN(C(=O)N3CC(COCc4c(F)cccc4C(F)(F)F)C3)C[C@H]2N1 [Example 102]
8,6.68,O=C1CO[C@H]2CCN(C(=O)N3CCC(Cc4nc5c(s4)CCC5)CC3)C[C@H]2N1 [Example 16]
9,8.52,C[C@H]1CN(C(=O)N2CC[C@@H]3OCC(=O)N[C@@H]3C2)CC[C@H]1COc1ccc(F)cc1Cl [Example 74]
10,6.92,C[C@H]1O[C@H]2CCN(C(=O)N3CCC(Cc4ccc(C(F)(F)F)cc4)CC3)C[C@H]2NC1=O [Example 67]
11,6.04,"O=C1CO[C@H]2CCN(C(=O)N3CCN(Cc4ccc(C(F)(F)F)cc4)CC3)C[C@H]2N1 (racemic) [Example 21, rac-(4aR,8aS)-6-(4-(4-(Trifluoromethyl)benzyl)piperazine-1-carbonyl)hexahydro-2H-pyrido[4,3-b][1,4]oxazin-3(4H)-one]"
12,7.92,O=C1CO[C@H]2CCN(C(=O)N3CCC(Cc4ccc(C(F)(F)F)cc4Cl)CC3)C[C@H]2N1 [Example 99]
13,9.00,"CC1(COc2ccc(F)cc2Cl)CCN(C(=O)N2CC[C@@H]3OCC(=O)N[C@@H]3C2)CC1 [Example 79, (4aR,8aS)-6-(4-((2-chloro-4-fluorophenoxy)methyl)-4-methylpiperidine-1-carbonyl)hexahydro-2H-pyrido[4,3-b][1,4]oxazin-3(4H)-one]"
14,6.56,O=C1CO[C@@H]2CCN(C(=O)N3CC(OCc4ccc(C(F)(F)F)cc4F)C3)C[C@@H]2N1 [Example 30]
15,8.15,O=C1CO[C@H]2CCN(C(=O)N3CC(OCc4ccc(C(F)(F)F)cc4F)C3)C[C@H]2N1 [Example 27]
16,6.16,"O=C1CO[C@@H]2CCN(C(=O)N3CCC(Cn4cc(C(F)(F)F)cn4)CC3)C[C@@H]2N1 (stereo in doubt) [Example 26, (4aS,8aR)-6-(4-((4-(Trifluoromethyl)-1H-pyrazol-1-yl)methyl)piperidine-1-carbonyl)hexahydro-2H-pyrido[4,3-b][1,4]oxazin-3(4H)-one]"
17,8.10,O=C1CO[C@H]2CCN(C(=O)N3CCC(Cc4ccc(C(F)(F)F)cc4C4CC4)CC3)C[C@H]2N1 [Example 95]
18,8.00,CC1C(OCc2ccc(C(F)(F)F)cc2)CN1C(=O)N1CC[C@@H]2OCC(=O)N[C@@H]2C1 (some centres unmarked) [Example 117]
